Entries after “also recorded” stand apart in the source; their conditions may differ.
Key:
Format in all cases: cell-based
BRD4 [1] = target: T1, BRD4 (Homo sapiens, UniProt O60885); experiment: Summary of BRD4 degradation by CURE-PRO pairs, estimated from Western Blot or WES (Proteinsimple); design: endogenous in cells; settings: Table 3; aromatic 1,2-diol-containing VHL ligand, second drawing (8305)
Description: A black check mark indicates efficacy of 30% to 70% or higher protein degradation.

BRD4 [2] = target: T1, BRD4; experiment: CURE-PRO-mediated BRD4 degradation with VHL ligands, Western blot, MCF7 cells; design: endogenous in cells; settings: MCF7, 24 h
Procedure: (§1) All cell lines were purchased from ATCC or DSMZ and grown at 37° C. with 5% CO2. Human HeLa cells were cultured in complete growth medium (Dulbecco's modified Eagle's medium (DMEM) supplemented with 10% FBS); MCF7 cells were cultured in complete growth medium (Dulbecco's modified Eagle's medium (DMEM) supplemented with 10% FBS and 0.01 mg/ml human recombinant insulin (Sigma Aldrich); Namalwa and MOLM-13 cells were cultured in complete growth medium (RPMI 1640 medium supplemented with 10% FBS); MV-4-11 were cultured in complete growth medium (Iscove's Modified Dulbecco's medium, supplemented with 10% FBS); HCT116 cells were cultured in complete growth medium (McCoy's 5a Medium supplemented with 10% FBS). For cellular degradation of BRD4 studies, cells were seeded in a 12-well plate at 70-80% confluency, allowed to attach overnight, and incubated with the indicated compounds for the indicated time. When indicated, a 15-minute pretreatment with 10 μM pomalidomide, 10 μM VHL298, 10 μM Nutlin3a, 1 μM MG-132 or 1 μM Carfilzomib was performed before the addition of CURE-PROs. For washout studies, after CURE-PRO treatment, media was aspirated and incubated with complete medium for the indicated time before lysis.
HeLa, MCF7, or HCT116 cells (2.5-3×10^6) were treated for 24 hours with the indicated compounds solubilized in DMSO. The cells were washed in ice-cold PBS and were then lysed in RIPA lysis buffer (150 mM NaCl, 5 mM EDTA, 1% NP-40, 0.5% sodium deoxycholate, 0.1% SDS, 50 mM Tris, pH 8.0.) with Roche protease inhibitor complete cocktail and phosphatase inhibitors (10 mM sodium fluoride, 10 mM sodium pyrophosphate, 1 mM sodium orthovanadate and 20 mM β-glycerophosphate). The total protein concentrations were determined by Bradford Protein Assay and 10-20 μg of protein was loaded onto 4-15% Tris-Glycine gradient gels (Biorad). After standard gel electrophoresis, the separated proteins were transferred to PVDF membrane by wet transfer. The immunoblots were then blocked for 1 hour in 5% skim milk in TBST or 5% BSA in TBST, according to manufacturer's instructions, before an overnight incubation at 4° C. with indicated antibodies and membranes. Membranes were then incubated with the appropriate horseradish peroxidase-conjugated secondary antibodies (1:5,000 dilution) for 1 h at room temperature and the bands were visualized using the Clarity Max Western ECL Substrate (Biorad) and the ChemiDoc Imaging System (Biorad). Signal was detected with ECL Western Blotting Substrate (Pierce) and X-ray film processed with a Konica SRX-101 X-ray film processor or captured by Bio-Rad's Chemidoc Imaging system.
MCF7 cells (3×10^6) were treated for 24 h with the compounds solubilized in DMSO. Compounds were added at 100 nM-10 μM. […]

BRD4 [3] = target: T1, BRD4; experiment: CURE-PRO-mediated BRD4 degradation with VHL ligands, WES (ProteinSimple), MCF7 cells; design: endogenous in cells
Procedure: as §1
WES Simple analysis was performed on WES system (ProteinSimple-Biotechne) according to the manufacturer's instructions. Total protein concentrations of cell lysates were determined by the Pierce BCA kit (Thermo Fisher). 3 μL of 0.3 μg/μL of the protein lysate was loaded onto a 12- to 230-kDa WES assay plate (ProteinSimple) where 300 nL sample was withdrawn through a capillary, subjected to electrophoretic separation of proteins by size, and followed by the simultaneous, HRP-based detection of proteins using the Anti-Rabbit Detection Module (Proteinsimple: #DM-001). The electropherograms were checked then the automatic peak detection was manually corrected if it was required.
MCF7 cells (3×10^6) were treated for 4-24 hours continually (FIG. 72), or treated for 4h, washed and incubated for a further 4-24 h with the compounds solubilized in DMSO. Compounds were added at 10 μM each. Cells were washed, lysed, and clarified by centrifugation. The total protein concentration was quantified by the BCA method (ThermoFisher Sciences). Standardized protein samples were electrophoresed and imaged as described in the WES Proteinsimple section above. FIG. 69 depicts the CURE-PRO-mediated BRD4 degradation for the BRD-E50 monomer, and VHL ligand, 8305.
MCF7 cells (3×10^6) were treated for 24 hours with the compounds solubilized in DMSO. CURE-PRO monomers were added at 10 μM each and the proteasomal inhibitors at 1 μM. Standardized protein samples were electrophoresed and imaged as described in the WES Proteinsimple section above. FIGS. 73 and 75 depicts the dependence of the proteasome for CURE-PRO-mediated BRD4 degradation.
MCF7 cells (3×10^6) were treated for 24 hours with the compounds solubilized in DMSO. CURE-PRO monomers were added at 10 μM. FIG. 74 depicts the CURE-PRO-mediated BRD4 degradation for the BRD-E50 monomer, and VHL ligand, 8305 combined in a 1:1 ratio after 24 h.

caspase 3/7 [4] = experiment: Caspase-Glo 3/7 assay, Namalwa cells
Procedure: (§2) Caspase-glo® assay (Promega) was conducted following the manufacturer's recommendations. Cells were seeded at a density of 5000 cells/well in a white 96 well plates (Corning, #3917) in a total volume of 100 μl with respective monomers, combinations of BRD ligands together with E3 ligase ligands or vehicle control treatment. After a 24 h incubation, 100 μl of the […] substrate was added per well and luminescence was read on a Spectramax M5 (Molecular Devices).
Namalwa cells (5×104) were treated for 24 hours with the compounds solubilized in DMSO. FIG. 57 is a bar graph depiction of fold increase of apoptosis assessed via caspase 3/7 activity using the Caspase-glo assay (Promega) described above.
(§3) Molm-13 (FIG. 76A) or Namalwa (FIG. 76B) cells (5×10^4) were treated for 24 hours with the compounds solubilized in DMSO in white 96 well plates (10 nM-10 μM solubilized in DMSO). FIG. 76 is a bar graph depiction of fold increase of apoptosis assessed via caspase 3/7 activity using the Caspase-glo assay (Promega) described above.

Molm-13 cells = experiment: CellTiter-Glo cell viability, Molm-13 cells; settings: Molm-13, 24 and 72 h
Procedure: CellTiter-Glo® 2.0 Cell Viability Assay (Promega) was carried out following the manufacturer's recommendations. Cells were seeded at a density of 1000 cells/well in a white 96 well plates (Corning, #3917) in a total volume of 100 μl with respective monomers, combinations of BRD ligands together with E3 ligase ligands or vehicle control treatment. After a 72 h incubation, 100 ul of the CellTiter-Glo® substrate was added per well and luminescence was read on a Spectramax M5 (Molecular Devices). Dose-response curves were generated using Graphpad Prism software.
Molm-13 cells (1×10^4) were treated for 24 (FIG. 77A) or 72 (FIG. 77B) hours were treated in white 96 well plates with the compounds (10 nM-10 μM solubilized in DMSO). After indicated times cell viability was assessed using the CellTiter-Glo® Luminescent Cell Viability Assay (Promega) and the signal detected on a SpectraMax M5 (Molecular Devices).

caspase 3/7 [5] = experiment: Caspase-Glo 3/7 assay, Molm-13 cells
Procedure: as §2, §3

CCNC(=O)C[C@@H]1N=C(c2ccc(Cl)cc2)c2cc(B(O)O)ccc2-n2c(C)nnc21 [BRD-E50, ((4S)-6-(4-chlorophenyl)-4-(2-(ethylamino)-2-oxoethyl)-1-methyl-4H-benzo[f][1,2,4]triazolo[4,3-a][1,4]diazepin-8-yl)boronic acid]
Degradation of BRD4 in combination with VHL ligand [drawing 397] (BRD4 [1]): ✓ (A black check mark indicates efficacy of 30% to 70% or higher protein degradation) | BRD4 degradation, with VHL ligand 8304 (Western blot) (BRD4 [2]; 1:1 with 8304, 1-10 μM): but not when VHL ligand 8304 is co-incubated; also recorded: no degradation is noted | BRD4 degradation, with VHL ligand 8305 (Western blot) (BRD4 [2]; 1:1 with 8305, 100 nM-10 μM): there is degradation of BRD4; also recorded: marked BRD4 degradation | BRD4 degradation, monomer alone (WES) (BRD4 [3]; MCF7, 10 μM): no degradation of BRD4 | BRD4 degradation, with VHL ligand 8304 (WES) (BRD4 [3]; MCF7, 10 μM each): No degradation is noted | BRD4 degradation, with VHL ligand 8305 (WES) (BRD4 [3]; MCF7, 10 μM each, 1:1 with 8305, 4-24 h, with washout where stated): directs degradation of BRD4 as early as 4 h, with sustained degradation 24 h after wash out; also recorded: marked BRD4 degradation after 4h with sustained degradation for up to 8h after drugs are washed out | BRD4 degradation with 8305 after VHL298 preincubation (BRD4 [3]; MCF7, 24 h, 10 μM): No degradation is noted | Caspase activity, co-treatment with VHL298 (caspase 3/7 [4]): does not increase caspase activity | Caspase 3/7 activation, co-dosed with VHL ligand 8305 (caspase 3/7 [4]; 24 hours, 1:1 with 8305, 10 nM-10 μM): marked caspase activation; also recorded: demonstrates activation of caspase 3/7 | Cell viability, co-treatment with VHL298 (Molm-13 cells): decreases levels of cell viability to similar levels of BRD-E50 treatment alone | Loss of cell viability, co-dosed with VHL ligand 8305 (Molm-13 cells; 1:1 with 8305, 10 nM-10 μM): greater loss of cell viability; also recorded: marked loss in cell viability | Caspase activity, co-treatment with VHL298 (caspase 3/7 [5]; MOLM13): does not increase caspase activity | Caspase 3/7 activation, co-dosed with VHL ligand 8305 (caspase 3/7 [5]; Molm-13, 24 hours, 1:1 with 8305, 10 nM-10 μM): marked caspase activation; also recorded: demonstrates activation of caspase 3/7
